The source of these data is ChEMBL document CHEMBL2016539 (Bioorg Med Chem Lett, 2012).

The structures appear in SMILES notation. Bounds are passed on as bounds.

Experiment [1] concerns the target Inosine-5'-monophosphate dehydrogenase 2 (Homo sapiens, UniProt P12268). As to the kind of experiment: Inhibition of IMPDH2 using inosine 5'-monophosphate as substrate by spectrophotometry.
The nature of experiment [2]: Immunosuppressive activity in C57BL/6 mouse T lymphocytes assessed as inhibition of cell proliferation after 72 hrs by MTT assay. The note with it: C57BL/6, T-cell. Type of experiment: functional, cell-based.

In general, IC50 refers to the concentration that gives 50% inhibition. As for `COc1c(C)c2c(c(O)c1C/C=C(\C)[C@@H](O)CC(=O)O)C(=O)OC2`, the values for the IC50 in experiment [1] and in experiment [2] were 1.79 µM and 1100 nM, respectively.
On to `COc1c(C)c2c(c(O)c1C/C=C(\C)CCC(=O)O)C(=O)OC2` [MYCOPHENOLIC ACID], for which, in experiment [2], the IC50 was determined as 320 nM.
On to `COc1c(C)c2c(c(OC)c1C/C=C(\C)[C@@H](O)CC(=O)O)C(=O)OC2` [PENICACID A], for which the results for the IC50 in experiment [1] and in experiment [2] were 28.9 µM and 2460 nM, respectively.
With `COc1c(C)c2c(c(O)c1C/C=C(\C)[C@H](CC(=O)O)O[C@H]1O[C@H](CO)[C@@H](O)[C@H](O)[C@H]1O)C(=O)OC2` [PENICACID B], the figures for the half-inhibitory concentration (IC50) in experiment [1] and in experiment [2] were 6.43 µM and greater than 20000 nM, respectively.
The corresponding values for `COc1c(C)c2c(c(O)c1CC(O)C(C)(O)C(O)CC(=O)O)C(=O)OC2` (centres undefined) [PENICACID C] are 73.2 µM and greater than 30000 nM.
